Test results from ChEMBL document CHEMBL3217574, “Discovery of CP-866,087, a mu opioid receptor antagonist for the treatment of alcohol abuse and dependence” (Medchemcomm, 2011).

How the values were obtained:
[1] = Total plasma concentration in rat at 1 mg/kg, sc at 0.75 hrs time-point; type: ADME, organism-based; set-up: dose 1 mg/kg, route subcutaneous
[2] = Fraction unbound in rat at 1 mg/kg, sc at 0.75 hrs time-point; type: ADME, organism-based; set-up: dose 1 mg/kg, route subcutaneous; details: plasma
Rattus norvegicus [3] = test: Reduction in alcohol intake in sc dosed alcohol-preferring rat after 30 mins; type: functional, organism-based
Rattus norvegicus [4] = test: Reduction in alcohol intake in alcohol-preferring rat at 5.6 mg/kg, sc after 30 mins; type: functional; details: 0.5 h, route subcutaneous
Rattus norvegicus [5] = test: Reduction in alcohol intake in alcohol-preferring rat at 1 mg/kg, sc after 30 mins; type: functional; details: 0.5 h, route subcutaneous
Mu-type opioid receptor [6] = target: T1, Mu-type opioid receptor (Homo sapiens, UniProt P35372); test: Displacement of [3H]diprenorphine from human mu opioid receptor expressed in cells after 1 hr by liquid scintillation counting analysis; type: cell-based
T1 sequence (P35372 whole entry): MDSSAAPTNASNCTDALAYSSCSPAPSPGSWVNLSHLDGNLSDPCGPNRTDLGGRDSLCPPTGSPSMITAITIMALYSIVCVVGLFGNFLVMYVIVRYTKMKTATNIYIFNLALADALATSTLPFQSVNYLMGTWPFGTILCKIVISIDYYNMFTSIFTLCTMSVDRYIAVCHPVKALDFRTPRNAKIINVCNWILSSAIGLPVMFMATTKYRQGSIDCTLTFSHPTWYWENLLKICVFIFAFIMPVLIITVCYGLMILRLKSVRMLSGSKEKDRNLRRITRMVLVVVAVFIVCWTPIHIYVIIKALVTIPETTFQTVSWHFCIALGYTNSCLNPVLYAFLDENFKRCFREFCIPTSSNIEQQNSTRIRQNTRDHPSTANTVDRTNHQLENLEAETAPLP

[7] = target: Delta-type opioid receptor (Homo sapiens, UniProt P41143); test: Displacement of [3H]diprenorphine from human delta opioid receptor expressed in cells after 1 hr by liquid scintillation counting analysis; type: cell-based
Sequence of Delta-type opioid receptor (P41143 whole entry): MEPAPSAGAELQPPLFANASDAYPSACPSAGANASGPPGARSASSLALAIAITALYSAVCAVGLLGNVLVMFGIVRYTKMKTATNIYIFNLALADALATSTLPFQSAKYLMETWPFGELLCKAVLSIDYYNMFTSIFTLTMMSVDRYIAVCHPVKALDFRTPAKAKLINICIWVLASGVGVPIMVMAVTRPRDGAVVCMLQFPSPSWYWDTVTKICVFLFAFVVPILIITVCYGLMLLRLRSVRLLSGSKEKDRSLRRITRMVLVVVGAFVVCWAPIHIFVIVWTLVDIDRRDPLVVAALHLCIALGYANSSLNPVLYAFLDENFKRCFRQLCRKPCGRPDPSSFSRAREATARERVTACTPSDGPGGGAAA

[8] = target: Kappa-type opioid receptor (Homo sapiens, UniProt P41145); test: Displacement of [3H]diprenorphine from human kappa opioid receptor expressed in cells after 1 hr by liquid scintillation counting analysis; type: cell-based
Sequence of Kappa-type opioid receptor (P41145 whole entry): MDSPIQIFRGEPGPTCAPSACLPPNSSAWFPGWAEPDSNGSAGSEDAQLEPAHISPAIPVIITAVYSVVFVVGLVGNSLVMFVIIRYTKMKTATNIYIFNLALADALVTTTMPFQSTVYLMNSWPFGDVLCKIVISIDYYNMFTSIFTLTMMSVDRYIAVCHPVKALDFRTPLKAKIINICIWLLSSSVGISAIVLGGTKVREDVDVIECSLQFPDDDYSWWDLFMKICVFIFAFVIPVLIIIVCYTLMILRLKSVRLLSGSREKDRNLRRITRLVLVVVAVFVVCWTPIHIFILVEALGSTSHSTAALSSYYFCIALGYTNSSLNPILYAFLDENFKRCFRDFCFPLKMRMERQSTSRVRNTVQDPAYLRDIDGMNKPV

Mu-type opioid receptor [9] = target: T1, Mu-type opioid receptor; test: Antagonist activity at human mu opioid receptor expressed in CHO cells assessed as [35S]-GTPgammaS binding after 1 hr by liquid scintillation counting analysis; type: functional, cell-based
[10] = Intrinsic clearance in human liver microsomes; type: ADME; details: read-out: CLH
CYP2D6 = CYP2D6 (Homo sapiens, UniProt P10635); test: Inhibition of CYP2D6 (unknown origin) at 3 uM after 8 mins; type: ADME
Sequence of CYP2D6 (P10635 whole entry): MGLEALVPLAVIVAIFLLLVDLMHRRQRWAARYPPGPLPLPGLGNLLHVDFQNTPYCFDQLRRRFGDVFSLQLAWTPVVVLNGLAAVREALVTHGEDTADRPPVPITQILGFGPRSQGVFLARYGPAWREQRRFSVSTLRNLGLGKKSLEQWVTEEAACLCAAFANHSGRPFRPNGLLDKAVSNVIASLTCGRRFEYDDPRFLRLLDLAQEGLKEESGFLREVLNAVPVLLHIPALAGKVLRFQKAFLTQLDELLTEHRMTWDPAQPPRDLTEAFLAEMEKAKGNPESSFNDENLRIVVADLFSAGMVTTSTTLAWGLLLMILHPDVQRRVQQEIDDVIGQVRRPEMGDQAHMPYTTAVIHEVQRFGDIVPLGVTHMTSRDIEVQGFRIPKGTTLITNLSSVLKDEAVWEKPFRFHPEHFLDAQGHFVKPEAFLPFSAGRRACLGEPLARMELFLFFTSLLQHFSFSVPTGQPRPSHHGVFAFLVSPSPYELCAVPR

Rattus norvegicus [11] = test: Antagonist activity against morphine-induced antinociception in sc dosed rat assessed as reversal of latency increase; type: functional
[12] = Clearance in rat; type: ADME, organism-based; details: in vivo
[13] = Volume of distribution in rat; type: ADME, organism-based; details: in vivo
[14] = Half life in rat; type: ADME, organism-based; details: in vivo
[15] = Ratio of drug level in rat brain to plasma at 1 mg/kg, sc at 0.75 hrs time-point; type: ADME, organism-based; set-up: dose 1 mg/kg, route subcutaneous; details: read-out: BPR
[16] = Drug level in rat cerebrospinal fluid at 1 mg/kg, sc at 0.75 hrs time-point; type: ADME, organism-based; set-up: dose 1 mg/kg, route subcutaneous; details: read-out: Drug uptake
Rattus norvegicus [17] = test: Reduction in alcohol intake in alcohol-preferring rat at 3 mg/kg, sc after 30 mins; type: functional; details: 0.5 h, route subcutaneous
Homo sapiens [18] = species on record: Homo sapiens; test: Ratio of Ki for human mu opioid receptor to Ki for human delta opioid receptor
Homo sapiens [19] = species on record: Homo sapiens; test: Ratio of ki for human mu opioid receptor to human kappa opioid receptor
[20] = target: Voltage-gated inwardly rectifying potassium channel KCNH2 (Homo sapiens, UniProt Q12809); test: Inhibition of human ERG by [3H]dofetilide binding assay
Sequence of Voltage-gated inwardly rectifying potassium channel KCNH2 (Q12809 whole entry): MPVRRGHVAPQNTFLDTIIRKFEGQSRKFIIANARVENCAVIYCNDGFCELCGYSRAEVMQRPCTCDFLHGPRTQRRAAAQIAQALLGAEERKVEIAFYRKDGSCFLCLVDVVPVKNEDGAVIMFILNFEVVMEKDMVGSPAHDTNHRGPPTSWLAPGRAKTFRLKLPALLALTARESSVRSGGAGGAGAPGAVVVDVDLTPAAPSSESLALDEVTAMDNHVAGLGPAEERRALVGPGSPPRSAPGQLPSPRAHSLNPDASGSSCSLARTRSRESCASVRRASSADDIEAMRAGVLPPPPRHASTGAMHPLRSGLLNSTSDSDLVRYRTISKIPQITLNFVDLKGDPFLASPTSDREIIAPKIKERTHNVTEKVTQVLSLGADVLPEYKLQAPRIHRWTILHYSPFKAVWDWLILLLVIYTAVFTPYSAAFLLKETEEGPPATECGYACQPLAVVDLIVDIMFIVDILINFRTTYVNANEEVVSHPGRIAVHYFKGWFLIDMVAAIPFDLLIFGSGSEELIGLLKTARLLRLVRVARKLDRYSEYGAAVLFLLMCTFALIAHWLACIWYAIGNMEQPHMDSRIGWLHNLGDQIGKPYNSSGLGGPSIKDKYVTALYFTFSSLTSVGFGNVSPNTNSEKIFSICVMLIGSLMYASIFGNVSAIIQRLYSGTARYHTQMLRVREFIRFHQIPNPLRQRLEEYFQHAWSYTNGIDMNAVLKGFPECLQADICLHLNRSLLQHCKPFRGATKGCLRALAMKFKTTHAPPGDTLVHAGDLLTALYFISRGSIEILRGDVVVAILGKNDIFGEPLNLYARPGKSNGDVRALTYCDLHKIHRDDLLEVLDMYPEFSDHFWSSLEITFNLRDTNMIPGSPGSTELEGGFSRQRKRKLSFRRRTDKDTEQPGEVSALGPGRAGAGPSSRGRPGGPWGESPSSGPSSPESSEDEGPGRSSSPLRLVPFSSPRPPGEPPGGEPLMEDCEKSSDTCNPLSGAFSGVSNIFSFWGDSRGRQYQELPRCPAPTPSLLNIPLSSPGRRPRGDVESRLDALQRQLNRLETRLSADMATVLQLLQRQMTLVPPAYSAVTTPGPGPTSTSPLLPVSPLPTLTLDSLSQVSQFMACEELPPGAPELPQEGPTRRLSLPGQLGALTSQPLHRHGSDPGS

human MDR1 (P-gp) = test: Efflux ratio of apparent permeability from basolateral to apical side over apical to basolateral side in MDCK cells transfected with human MDR1; type: ADME, cell-based, Canis lupus familiaris; details: dog
hERG (KCNH2) = hERG (KCNH2) (Homo sapiens, UniProt Q12809); test: Inhibition of human ERG
Sequence of hERG (KCNH2) (Q12809 whole entry): as above

[21] = Inhibition of IC20 for human ERG over plasma efficacious concentration; type: functional

CC[C@]1(c2cccc(NS(C)(=O)=O)c2)[C@@H]2CN(CC3(O)Cc4ccccc4C3)C[C@@H]21 [CP-866087]
concentration at 0.75 h [1]: 0.338 µM
fraction unbound at 0.75 h [2]: 0.034
inhibition (Rattus norvegicus [3]): Dose-dependent effect
inhibition in vivo at 5.6 mg/kg (Rattus norvegicus [4]): 42%
inhibition in vivo at 1 mg/kg (Rattus norvegicus [5]): 23%
Ki (Mu-type opioid receptor [6]): 0.001 µM
Ki [7]: 0.17 µM
Ki [8]: 0.042 µM
Ki (Mu-type opioid receptor [9]): 0.00028 µM
CLint scaled [10]: 0.72 L/h/kg
inhibition at 8 min, 3 µM (CYP2D6): 6%
ED50 (Rattus norvegicus [11]): 0.1 mg/kg
clearance [12]: 7.2 L/h/kg
Vd [13]: 21.7 L/kg
half-life [14]: 11 h
Kp at 0.75 h [15]: 2
concentration at 0.75 h [16]: 0.0119 µM

O=C1CC[C@@]2(O)[C@H]3Cc4ccc(O)c5c4[C@@]2(CCN3CC2CC2)[C@H]1O5 [NALTREXONE]
inhibition in vivo at 3 mg/kg (Rattus norvegicus [17]): 21%

CC[C@]1(c2cccc(C(N)=O)c2)[C@@H]2CN(CC3(O)Cc4ccccc4C3)C[C@@H]21
Ki (Mu-type opioid receptor [6]): 0.0035 µM
Ki [7]: 0.108 µM
Ki [8]: 0.06 µM
Ratio Ki (Homo sapiens [18]): 31
Ratio Ki (Homo sapiens [19]): 17
Ki (Mu-type opioid receptor [9]): 0.00016 µM
IC50 [20]: 2.2 µM
CLint scaled [10]: 0.66 L/h/kg
inhibition at 8 min, 3 µM (CYP2D6): 17%
efflux ratio (human MDR1 (P-gp)): 2.9

CC[C@]1(c2cccc(NS(C)(=O)=O)c2)[C@@H]2CN(CC3Cc4ccccc4C3)C[C@@H]21
IC50 [20]: 0.326 µM
CLint scaled [10]: 1.14 L/h/kg
inhibition at 8 min, 3 µM (CYP2D6): 35%
efflux ratio (human MDR1 (P-gp)): 3.5

CC[C@]1(c2cccc(NS(C)(=O)=O)c2)[C@@H]2CN(CCCC3(O)CCCCC3)C[C@@H]21
Ki (Mu-type opioid receptor [6]): 0.002 µM
Ki [7]: 0.166 µM
Ki [8]: 0.016 µM
Ratio Ki (Homo sapiens [18]): 83
Ratio Ki (Homo sapiens [19]): 8
Ki (Mu-type opioid receptor [9]): 0.00018 µM
IC50 [20]: 0.71 µM
CLint scaled [10]: 0.54 L/h/kg
inhibition at 8 min, 3 µM (CYP2D6): 14%
efflux ratio (human MDR1 (P-gp)): 6.5
ED50 (Rattus norvegicus [11]): 0.63 mg/kg
IC20 (hERG (KCNH2)): 0.32 µM
Ratio [21]: 15
